Paper PMC6881293, “Nanomolar-potency ‘co-potentiator’ therapy for cystic fibrosis caused by a defined subset of minimal function CFTR mutants” (Scientific Reports, 2019)

What was measured:
Assay type in all cases: cell-based
W1282X-CFTR [1] = biological target: T1, W1282X-CFTR (Homo sapiens, UniProt P13569); assay: Short-circuit current in FRT cells expressing W1282X-CFTR; conditions: VX-809-corrected W1282X-CFTR-expressing FRT cells; for increase in VX-770 current: forskolin and 5 μM VX-770; for EC50: in the presence of forskolin and 5 μM VX-770
T1 construct: expressed in transfected cells
Experimental: Given the utility of co-potentiators as possible CF therapeutics for several minimal function CFTR mutants, a screen was done to identify novel co-potentiator scaffolds. Screening used FRT cells stably expressing W1282X-CFTR and the halide-sensitive EYFP-H148Q/I152L/F46L (YFP) that were treated for 24 hours with 3 μM VX-809 to increase CFTR1281 cell surface expression (Fig. 4A). Just prior to assay cells were treated for 10 min with test compounds at 25 μM together with 20 μM forskolin and 15 nM VX-770. CFTR channel activity was deduced from the initial rate of YFP fluorescence quenching in response to addition of iodide-substituted phosphate buffered saline. Primary screening of 120,000 drug-like synthetic small molecules identified 212 compounds giving channel activity >50% of that produced by forskolin, VX-770 and 20 μM ASP-11 (Fig. 4B). […] Each of these compounds added to VX-809-corrected FRT cells expressing W1282X-CFTR produced little current without VX-770 (Fig. 4E).
Figure 4 Novel co-potentiators identified by high-throughput screening. (A) Assay design. (B) Summary of screening workflow and results. (C) Chemical structures of novel co-potentiators identified by screening. (D) Representative short-circuit current data in FRT cells expressing W1282X-CFTR. Concentrations: 20 μM forskolin (fsk), 5 μM VX-770 (n = 3). (E) Effects of sequential addition of 20 μM forskolin followed by 20 μM of A-01, B-01, C-01 and D-01, and 5 μM of VX-770 in FRT cells expressing W1282X-CFTR. CFTRinh-172 was used at 10 μM in all experiments.
(§1) Short-circuit current was measured on cells cultured on Snapwell clear permeable supports (Corning) as described[10],[11]. Hemichambers were connected to a DVC-1000 voltage clamp (World Precision Instruments Inc., Sarasota, FL) via Ag/AgCl electrodes and 3 M KCl agar bridges for recording of the short-circuit current. For human airway epithelial cells, symmetrical HCO3^−-buffered solutions (in mM: 120 NaCl, 5 KCl, 1 MgCl2, 1 CaCl2, 5 Hepes, 25 NaHCO3, 10 glucose, pH 7.4) for basolateral and apical side were used. For FRT cells, the basolateral membrane was permeabilized with 250 μg/ml amphotericin B, and experiments were done with a chloride gradient using a HCO3^−-buffered solutions (Basolateral (mM): 120 NaCl, 5 KCl, 1 MgCl2, 1 CaCl2, 5 Hepes, 25 NaHCO3, 10 glucose, pH 7.4; apical (mM): 60 NaCl, 60 mM sodium gluconate, 5 KCl, 1 MgCl2, 1 CaCl2, 5 Hepes, 25 NaHCO3, 10 glucose, pH 7.4). All cells were equilibrated with 95% O2, 5% CO2 and maintained at 37 °C during experiments.

Q1313X-CFTR = biological target: T2, Q1313X-CFTR (Homo sapiens, UniProt P13569); assay: Short-circuit current in FRT cells expressing Q1313X-CFTR; conditions: Q1313X-CFTR FRT cells; 20 μM forskolin, 5 μM VX-770; 20 μM P2, P3, P5, ASP-11; 25 μM apigenin
T2 construct: expressed in transfected cells
Experimental: As shown in Fig. 1C and summarized in Fig. 2, ASP-11 acted in synergy with VX-770 to increase chloride current in FRT cells expressing the NBD2 mutations I1234del- and Q1313X-CFTR by ~3–9-fold compared to VX-770. I1234del- and Q1313X-CFTR-expressing cells were also treated with VX-809 for 24 hours (to consider the effect of available CFTR therapeutics) with 2–3-fold greater currents observed.
Studies on FRT cells expressing Q1313X-CFTR produced similar data (Fig. 3C).
(§2) Figures 5C,D show data in N1303K- and Q1313X-expressing FRT cells.
as §1

N1303K-CFTR = biological target: T3, N1303K-CFTR (Homo sapiens, UniProt P13569, N1303K); assay: Short-circuit current in FRT cells expressing N1303K-CFTR; conditions: N1303K-CFTR FRT cells; for short-circuit current response when added after VX-770: 20 μM forskolin, 5 μM VX-770, then 20 μM compound
T3 construct: expressed in transfected cells
Experimental: Based on prior studies[10],[11],[20], we hypothesized that distinct binding sites may be required to bind a potentiator and co-potentiator to rescue channel activity of CFTR mutants. We defined the potentiator VX-770 as a Class I compound, and co-potentiator ASP-11 as a Class II compound (Fig. 3A,D). Short-circuit current measurements in N1303K-CFTR-expressing FRT cells confirmed synergy when ASP-11 was added after VX-770 (Fig. 3Bi). […] In each experiment, CFTRinh-172 confirmed that current was from CFTR.
Figure 3 Definition of Class I and II CFTR potentiators. (A) Chemical structures of Class I and II potentiators. (B) Short-circuit current in FRT cells expressing N1303K-CFTR in response to forskolin and indicated potentiators. Concentrations: 20 μM forskolin, 5 μM VX-770, 20 μM ASP-11, 20 μM GLPG1837, 20 μM P2, 20 μM P3, 20 μM P5, 20 μM W1282Xpot-C01, and 10 μM CFTRinh-172. C. Short-circuit current in FRT cells expressing Q1313X-CFTR in response to forskolin and indicated potentiators. Concentrations: as in panel B, and 25 μM apigenin. (D) Summary of relative N1303K-CFTR activation in response to combinations of Class I and Class II potentiators. Mean ± S.E.M., n = 3. TEXT PRINTED IN THE PICTURE: (D) VX-770: N1303K-CFTR: P5: 1% ±1%; N1303K-CFTR: GLPG 1837: 10% ±5%; N1303K-CFTR: ASP-11: 100% ±3%; N1303K-CFTR: apigenin: 100% ±5% | (D) P5: N1303K-CFTR: VX-770: 1% ±1%; N1303K-CFTR: GLPG 1837: 2% ±2%; N1303K-CFTR: ASP-11: 52% ±5%; N1303K-CFTR: apigenin: 56% ±5% | (D) GLPG 1837: N1303K-CFTR: VX-770: 0% ±5%; N1303K-CFTR: P5: 2% ±2%; N1303K-CFTR: ASP-11: 100% ±4%; N1303K-CFTR: apigenin: 98% ±5% | (D) ASP-11: N1303K-CFTR: VX-770: 100% ±3%; N1303K-CFTR: P5: 47% ±4%; N1303K-CFTR: GLPG 1837: 100% ±5%; N1303K-CFTR: apigenin: 7% ±3% | (D) apigenin: N1303K-CFTR: VX-770: 100% ±5%; N1303K-CFTR: P5: 50% ±5%; N1303K-CFTR: GLPG 1837: 100% ±5%; N1303K-CFTR: ASP-11: 5% ±2% DOUBTS OF THE COPYIST ABOUT THIS PICTURE: Panel D is a matrix of pairs of substances (row substance combined with column substance). The picture prints no name for the measure, only % values and a 0%–100% colour scale. / The print in panel D is small, so 3, 5, 6 and 8 are hard to tell apart in these values. / VX-770 / GLPG 1837: ±5% could be ±3% / VX-770 / ASP-11: ±3% could be ±5% / VX-770 / apigenin: ±5% could be ±3% / P5 / ASP-11: 52% ±5%, digits uncertain / P5 / apigenin: 56% could be 58%, and ±5% is uncertain / GLPG 1837 / VX-770: 0% ±5%, error digit uncertain / GLPG 1837 / apigenin: 98% could be 96%, and ±5% is uncertain / ASP-11 / VX-770: ±3% could be ±5% / ASP-11 / GLPG 1837: ±5% could be ±3% / ASP-11 / apigenin: 7% ±3%, error digit uncertain / apigenin / VX-770: ±5% could be ±3% / apigenin / P5: 50% ±5%, digits uncertain / apigenin / GLPG 1837: ±5% could be ±3% / apigenin / ASP-11: 5% ±2%, the 5 is uncertain
as §2, §1

W1282X-CFTR [2] = biological target: T1, W1282X-CFTR; assay: Structure-activity testing of analogs in FRT cells expressing W1282X-CFTR
Experimental: To establish structure-activity relationships, 240 commercially available piperidinepyridoindole analogs and 160 pyrazoloquinoline analogs were tested in FRT cells expressing W1282X-CFTR. In general, the methoxy substituent on the 4-position (R^3) on the pyridoindole ring increased potency (compare A01 vs A534). N-methylation on the pyridoindole ring abolished activity (compare A534 vs A600). For substituent R^1 on the piperidine ring, substituted benzyl gave greatest activity (A061 and A662). Other R^1 substituents, including sulfonamide (A145), alkyl (A764) and carbocyclic (A714), reduced activity. Changing the benzylic carbon from methylene (CH2) to ketone (C=O) abolished activity (A815, A350 and A956).
For R^3, pyridine (D003), benzyl (D035) and substituted methyl-pyrazole (D086) abolished activity. […] The D123 pyrazoloquinoline with R^3 substituted with thiophene-quinoline heterocycle gave the best potency.

T1 sequence (P13569 1-1281 limits assumed): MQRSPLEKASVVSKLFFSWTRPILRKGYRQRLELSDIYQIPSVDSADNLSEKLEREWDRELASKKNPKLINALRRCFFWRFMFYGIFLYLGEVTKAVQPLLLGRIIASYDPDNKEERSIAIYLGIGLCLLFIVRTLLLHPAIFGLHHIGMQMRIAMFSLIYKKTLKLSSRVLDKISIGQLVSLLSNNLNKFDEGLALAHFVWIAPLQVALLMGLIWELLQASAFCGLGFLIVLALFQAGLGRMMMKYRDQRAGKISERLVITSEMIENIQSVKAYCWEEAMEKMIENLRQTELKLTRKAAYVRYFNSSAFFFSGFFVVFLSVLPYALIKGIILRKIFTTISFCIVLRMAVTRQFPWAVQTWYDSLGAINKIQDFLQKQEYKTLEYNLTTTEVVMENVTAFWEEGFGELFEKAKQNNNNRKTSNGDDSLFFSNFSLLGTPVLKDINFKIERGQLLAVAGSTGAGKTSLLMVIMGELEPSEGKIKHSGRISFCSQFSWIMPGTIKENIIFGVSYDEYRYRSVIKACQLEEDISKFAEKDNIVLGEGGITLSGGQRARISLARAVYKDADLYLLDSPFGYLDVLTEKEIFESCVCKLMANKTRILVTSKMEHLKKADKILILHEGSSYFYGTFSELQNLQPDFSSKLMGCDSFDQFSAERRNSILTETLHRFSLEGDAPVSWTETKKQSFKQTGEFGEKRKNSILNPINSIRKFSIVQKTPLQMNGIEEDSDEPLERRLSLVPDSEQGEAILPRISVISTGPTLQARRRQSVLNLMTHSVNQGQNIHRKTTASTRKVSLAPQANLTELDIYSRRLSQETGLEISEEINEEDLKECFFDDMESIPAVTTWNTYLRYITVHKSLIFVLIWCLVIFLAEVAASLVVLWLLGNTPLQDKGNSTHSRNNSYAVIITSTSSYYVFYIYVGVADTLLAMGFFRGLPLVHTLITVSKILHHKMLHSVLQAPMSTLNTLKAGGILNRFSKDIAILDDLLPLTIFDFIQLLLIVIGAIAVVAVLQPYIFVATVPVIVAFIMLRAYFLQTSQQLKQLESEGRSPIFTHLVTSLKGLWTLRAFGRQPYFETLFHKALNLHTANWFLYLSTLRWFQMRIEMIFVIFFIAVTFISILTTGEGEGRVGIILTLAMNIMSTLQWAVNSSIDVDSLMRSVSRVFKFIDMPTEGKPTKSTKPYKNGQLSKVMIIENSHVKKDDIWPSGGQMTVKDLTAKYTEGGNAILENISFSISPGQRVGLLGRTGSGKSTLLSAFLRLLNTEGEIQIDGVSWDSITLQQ
T3 sequence (P13569 whole entry N1303K): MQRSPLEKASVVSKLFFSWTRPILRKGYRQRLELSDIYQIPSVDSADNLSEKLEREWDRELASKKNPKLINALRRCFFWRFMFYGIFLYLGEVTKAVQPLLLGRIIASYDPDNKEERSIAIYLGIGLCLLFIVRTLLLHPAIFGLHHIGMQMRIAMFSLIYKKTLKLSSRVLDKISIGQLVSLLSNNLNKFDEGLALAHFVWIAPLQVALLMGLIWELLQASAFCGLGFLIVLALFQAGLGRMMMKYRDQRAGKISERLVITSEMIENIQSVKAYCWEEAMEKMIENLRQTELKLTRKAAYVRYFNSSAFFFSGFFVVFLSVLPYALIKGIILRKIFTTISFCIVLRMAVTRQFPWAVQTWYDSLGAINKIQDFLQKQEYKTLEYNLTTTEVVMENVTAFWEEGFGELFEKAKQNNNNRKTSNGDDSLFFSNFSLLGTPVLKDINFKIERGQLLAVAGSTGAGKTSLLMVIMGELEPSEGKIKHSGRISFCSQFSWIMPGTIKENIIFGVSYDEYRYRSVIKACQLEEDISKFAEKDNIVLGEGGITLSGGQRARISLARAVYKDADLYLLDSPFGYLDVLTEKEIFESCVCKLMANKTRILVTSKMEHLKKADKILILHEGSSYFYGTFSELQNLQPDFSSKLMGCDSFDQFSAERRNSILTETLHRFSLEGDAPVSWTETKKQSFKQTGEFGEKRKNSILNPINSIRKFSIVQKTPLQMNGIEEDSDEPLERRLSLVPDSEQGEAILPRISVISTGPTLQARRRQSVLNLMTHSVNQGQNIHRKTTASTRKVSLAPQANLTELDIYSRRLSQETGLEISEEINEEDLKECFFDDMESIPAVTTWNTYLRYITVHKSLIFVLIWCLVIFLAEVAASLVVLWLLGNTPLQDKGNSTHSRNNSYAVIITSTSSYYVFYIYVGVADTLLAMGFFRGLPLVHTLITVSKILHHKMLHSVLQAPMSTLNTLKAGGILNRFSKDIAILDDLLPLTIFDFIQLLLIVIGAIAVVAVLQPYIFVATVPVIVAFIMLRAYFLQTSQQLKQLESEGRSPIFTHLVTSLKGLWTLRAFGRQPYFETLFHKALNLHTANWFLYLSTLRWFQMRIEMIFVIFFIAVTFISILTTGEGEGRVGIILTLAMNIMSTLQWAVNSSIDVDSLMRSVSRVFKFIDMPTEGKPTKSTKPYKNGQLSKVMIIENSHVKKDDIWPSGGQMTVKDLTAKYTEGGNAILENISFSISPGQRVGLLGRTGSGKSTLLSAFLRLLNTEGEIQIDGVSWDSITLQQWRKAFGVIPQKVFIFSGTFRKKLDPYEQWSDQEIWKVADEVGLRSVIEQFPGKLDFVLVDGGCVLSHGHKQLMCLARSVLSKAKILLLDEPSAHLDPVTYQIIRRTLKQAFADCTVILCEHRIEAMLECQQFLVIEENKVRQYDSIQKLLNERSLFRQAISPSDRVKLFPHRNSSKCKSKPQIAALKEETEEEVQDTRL
T2 sequence (P13569 1-1312 limits assumed): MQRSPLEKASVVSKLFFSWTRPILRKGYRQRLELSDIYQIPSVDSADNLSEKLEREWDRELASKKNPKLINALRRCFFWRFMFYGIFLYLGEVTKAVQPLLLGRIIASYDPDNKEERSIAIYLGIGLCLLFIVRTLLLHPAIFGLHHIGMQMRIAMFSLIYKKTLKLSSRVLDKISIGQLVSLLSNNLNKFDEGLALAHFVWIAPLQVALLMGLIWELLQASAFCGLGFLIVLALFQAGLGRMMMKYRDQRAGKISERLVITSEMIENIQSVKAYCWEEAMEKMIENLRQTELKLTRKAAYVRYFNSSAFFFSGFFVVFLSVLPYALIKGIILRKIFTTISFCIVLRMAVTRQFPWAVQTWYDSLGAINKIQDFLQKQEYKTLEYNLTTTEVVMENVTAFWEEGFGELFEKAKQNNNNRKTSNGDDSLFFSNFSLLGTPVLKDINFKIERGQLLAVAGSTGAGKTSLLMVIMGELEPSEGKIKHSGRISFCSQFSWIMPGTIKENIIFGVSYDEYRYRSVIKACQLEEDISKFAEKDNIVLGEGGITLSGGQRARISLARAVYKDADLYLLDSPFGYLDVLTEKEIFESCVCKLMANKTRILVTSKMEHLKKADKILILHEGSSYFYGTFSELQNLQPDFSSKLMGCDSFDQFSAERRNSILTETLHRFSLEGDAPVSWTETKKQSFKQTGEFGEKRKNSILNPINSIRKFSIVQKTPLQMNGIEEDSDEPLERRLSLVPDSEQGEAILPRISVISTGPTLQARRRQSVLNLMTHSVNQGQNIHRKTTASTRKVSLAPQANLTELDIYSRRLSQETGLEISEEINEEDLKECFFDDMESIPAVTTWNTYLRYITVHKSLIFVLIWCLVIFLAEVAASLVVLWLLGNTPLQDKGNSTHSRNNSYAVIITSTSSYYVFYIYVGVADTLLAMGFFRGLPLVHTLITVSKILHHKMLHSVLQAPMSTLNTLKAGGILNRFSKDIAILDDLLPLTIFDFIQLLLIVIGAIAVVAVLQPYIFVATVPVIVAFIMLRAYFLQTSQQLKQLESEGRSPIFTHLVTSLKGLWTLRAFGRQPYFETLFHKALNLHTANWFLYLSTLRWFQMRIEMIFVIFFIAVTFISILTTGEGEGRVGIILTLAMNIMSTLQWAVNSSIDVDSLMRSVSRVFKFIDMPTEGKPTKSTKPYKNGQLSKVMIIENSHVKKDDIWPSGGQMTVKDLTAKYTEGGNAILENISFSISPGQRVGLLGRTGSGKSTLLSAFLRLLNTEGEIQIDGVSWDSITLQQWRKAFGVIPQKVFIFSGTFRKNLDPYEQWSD

| SMILES | increase in VX-770 current (W1282X-CFTR [1]) | EC50 (W1282X-CFTR [1]) | short-circuit current response when added after VX-770 (Q1313X-CFTR) | short-circuit current response when added after VX-770 (N1303K-CFTR) | other results |
| --- | --- | --- | --- | --- | --- |
| CC(C)c1ccc(NC(=O)C(c2ccccc2)N(C)C(=O)Cc2c[nH]c3ccccc23)cc1 (centres unmarked) [Compound P2] |  |  | did not elevate current | did not further increase current |  |
| NC(=O)c1c(NC(=O)c2ccccc2Cl)sc2c1CCCC2 [Compound P5] |  |  | did not elevate current | did not further increase current |  |
| COc1ccc2cc3c(N)nn(C(=O)c4ccccc4Cl)c3nc2c1 [Compound D001] | ~ 6 fold | 15 µM |  |  | Relative Vmax (%) (W1282X-CFTR [2]; Table 2, 100% Vmax corresponds to 20 μM ASP-11): 90%; EC50 (W1282X-CFTR [2]; Table 2, pyrazoloquinoline analogs): 15 µM |

The next lines start with results.

| increase in VX-770 current (W1282X-CFTR [1]) | EC50 (W1282X-CFTR [1]) | short-circuit current response when added after VX-770 (Q1313X-CFTR) | short-circuit current response when added after VX-770 (N1303K-CFTR) | SMILES | other results |
| --- | --- | --- | --- | --- | --- |
| ~ 6 fold | 5 µM |  |  | O=C(CN1C(=O)CC(c2cccs2)=Nc2ccccc21)NCc1ccc(Cl)cc1 [CP-B01] |  |
|  |  | did not elevate current | did not further increase current | CCN(c1ccccc1)S(=O)(=O)c1ccc2[nH]cc(C(=O)NCc3ccccc3OC)c(=O)c2c1 [Compound P3] |  |
|  |  |  | activated N1303K-CFTR | Cc1cc(C)cc(N(Cc2ccc(Cl)cc2)S(=O)(=O)c2cccn3c(C)nnc23)c1 [W1282Xpot-C01] | activation by two Class II potentiators added together (N1303K-CFTR; 20 μM W1282Xpot-C01 and 20 μM ASP-11, no Class I potentiator): little activation |
| ~ 6 fold | 8 µM |  |  | CCCS(=O)(=O)N1CCCc2ccc(NS(=O)(=O)c3cccs3)cc21 [CP-C01] |  |
| ~ 6 fold | 10 µM |  |  | COc1cccc(CN2CCC3(CC2)NCCc2c3[nH]c3ccc(OC)cc23)c1 [Compound A01] | Relative Vmax (%) (W1282X-CFTR [2]; Table 1, 100% Vmax corresponds to 20 μM ASP-11): 100%; EC50 (W1282X-CFTR [2]; Table 1, piperidine-pyridoindole analogs): 10 µM |
